Reference: patent US12275684B2, “Methods for making and using endoxifen” (Atossa Therapeutics, Inc., priority 2017, dated 2025)

Experiment: Placebo controlled, dose escalation pharmacokinetic study of oral (Z)-Endoxifen capsules (serum endoxifen; incl. accumulation ratios and dose linearity)
Format: in vivo, human
Set-up: Serum concentration, Maximum / Serum concentration, GeoMean / Serum concentration, Mean / Serum concentration, Median / terminal rate constant: unit not given here
Details: for AUC24hr / AUC to last time point / AUC(0-inf): in ng·h/mL
Text: An objective of the study was to assess the safety and tolerability of oral (Z)-Endoxifen when administered […] orally as a capsule to healthy female volunteers. A secondary objective was to assess the pharmacokinetics of multiple doses of oral (Z)-Endoxifen in the subjects.
Generally, healthy female volunteers aged ≥18 years and ≤65 years were enrolled. 24 participants were enrolled in 3 cohorts and will be administered study drug orally. Three dose levels of orally administered (Z)-Endoxifen were investigated in 3 cohorts. In each cohort participants were randomized to receive an oral (Z)-Endoxifen or placebo in a blinded fashion. Enteric-resistant capsules used in the study were designed as delayed release capsules to resist rupture for at least 30 minutes, but typically, for about 2 hours, under gastric conditions and then open fully in intestinal fluid (DRCaps; Capsugel, a Lonza Company, USA). Enteric-resistant (Swedish Orange size Zero (0); Capsugel, USA) DRCaps capsules manually filled with 1, 2 or 4 mg of (Z)-endoxifen neat in compliance with GMP requirements were used. Placebo capsules contained microcrystalline cellulose an inert common capsule and tablet excipient.
Each cohort enrolled 8 participants, with 6 participants receiving (Z)-Endoxifen 1 mg capsules orally at 1 mg (Cohort 1), 2 mg (Cohort 2) or 4 mg (Cohort 3) doses and 2 participants receiving matching placebo capsules. In Cohort 1 (Dose Level=1 mg) two participants (sentinels) were dosed 24 hours prior to the remaining participants. One sentinel was dosed with (Z)-Endoxifen and the other with placebo. The remaining six participants in Cohort 1 were dosed as no safety concerns were identified in the sentinel participants. The non-sentinel participants in Cohort 1 were admitted to the clinical research facility at least one day later than the sentinels. There were no sentinels in Cohorts 2 and 3.
Participant engagement in this study was for a period of 56 days. These included a 28 day screening period, and a 7 day post treatment period for Pharmacokinetic (PK) sampling. There were two confinement periods, one at the beginning and one at the end of the dosing periods. Participants were confined to the clinical facility on Days-1 through to Day 2 and Days 21 and 22. If participants were to experience any clinically significant adverse events during the study, they would have been required to remain in the clinical facility for further observation at the discretion of the Principal Investigator (PI).
Healthy female volunteers were screened within 28 days prior to commencement of dosing. Participants were admitted to the clinical facility on Day-1 for up to 3 days. The first dose of (Z)-Endoxifen or placebo capsules was administered on Day 1. Following completion of all safety assessments and sampling for PK analyses, participants were discharged from the clinical facility on Day 2. The first dose on Day 1 was followed by a 6-day treatment free period (Days 2-7). Each participant returned to the clinical facility for PK blood draws and safety assessments during the treatment free period on study Days 4 and 6. On Day 8 participants commenced daily administration of (Z)-Endoxifen capsules or placebo capsules for 14 consecutive days (Days 8-21). Participants were supplied with study drug capsules and asked to self administer daily. Participants visited the clinical facility on Days 11, 14 and 17, prior to dose administration, for PK blood draws and safety assessments. On the morning of Day 21 each participant returned to the clinical facility prior to dose administration and were confined to the facility until Day 22 to allow for the collection of PK blood draws and safety assessments. The Day 21 dose was the last administration of study drug. Participants were discharged from the clinical facility on Day 22 and returned for PK blood draws and safety assessments on study Days 24, 26, and 28. […]

[1] = Day 1, dose 4 mg oral, Maximum, N 6
[2] = Day 1, dose 4 mg oral, Minimum, N 6
[3] = Day 21, dose 2 mg oral once daily, GeoMean, N 6
[4] = Day 21, dose 2 mg oral once daily, Maximum, N 6
[5] = Day 21, dose 2 mg oral once daily, Mean, N 6
[6] = Day 21, dose 2 mg oral once daily, Median, N 6
[7] = Day 21, dose 2 mg oral once daily, Minimum, N 6
[8] = Day 21, dose 4 mg oral once daily, GeoMean, N 6
[9] = Day 21, dose 4 mg oral once daily, Maximum, N 6
[10] = Day 21, dose 4 mg oral once daily, Mean, N 6
[11] = Day 21, dose 4 mg oral once daily, Median, N 6
[12] = Day 21, dose 4 mg oral once daily, Minimum, N 6

For CC/C(=C(\c1ccc(O)cc1)c1ccc(OCCNC)cc1)c1ccccc1 [(Z)-Endoxifen, (Z)-4-(1-(4-(2-(methylamino)ethoxy)phenyl)-2-phenylbut-1-enyl) phenol], the “CL/F, Min” value (Day 1, 1 mg, N = 5) was 1.35 L/h, the “Cmax, Max” value (Day 1, 1 mg, N = 5) was 12.0 ng/mL and the “Cmax, Min” value (Day 1, 1 mg, N = 5) was 7.0 ng/mL. The “Kel, GeoMean” value (Day 1, 1 mg, N = 5) was 0.015 h⁻¹, the “Kel, Max” value (Day 1, 1 mg, N = 5) was 0.018 h⁻¹ and the “Kel, Mean” value (Day 1, 1 mg, N = 5) was 0.015 h⁻¹. The “Kel, Median” value (Day 1, 1 mg, N = 5) was 0.015 h⁻¹, the “Kel, Min” value (Day 1, 1 mg, N = 5) was 0.013 h⁻¹ and the “Thalf, GeoMean” value (Day 1, 1 mg, N = 5) was 45.6 h. The “Thalf, Max” value (Day 1, 1 mg, N = 5) was 54.4 h, the “Thalf, Mean” value (Day 1, 1 mg, N = 5) was 46.1 h and the “Thalf, Median” value (Day 1, 1 mg, N = 5) was 47.2 h. The “Thalf, Min” value (Day 1, 1 mg, N = 5) was 37.5 h, the “Tmax, Max” value (Day 1, 1 mg, N = 5) was 8.08 h and the “Tmax, Min” value (Day 1, 1 mg, N = 5) was 2.0 h. The “CL/F, GeoMean” value (Day 1, 2 mg, N 6) was 1.85 L/h, the “CL/F, Maximum” value (Day 1, 2 mg, N 6) was 2.65 L/h and the “CL/F, Mean” value (Day 1, 2 mg, N 6) was 1.89 L/h. The “CL/F, Median” value (Day 1, 2 mg, N 6) was 1.83 L/h, the “CL/F, Minimum” value (Day 1, 2 mg, N 6) was 1.34 L/h and the “Cmax, Maximum” value (Day 1, 2 mg, N 6) was 22.0 ng/mL. For the same molecule, the “Cmax, Minimum” value (Day 1, 2 mg, N 6) was 13.0 ng/mL, the “Kel, GeoMean” value (Day 1, 2 mg, N 6) was 0.015 h⁻¹ and the “Kel, Maximum” value (Day 1, 2 mg, N 6) was 0.018 h⁻¹. The “Kel, Mean” value (Day 1, 2 mg, N 6) was 0.015 h⁻¹, the “Kel, Median” value (Day 1, 2 mg, N 6) was 0.016 h⁻¹ and the “Kel, Minimum” value (Day 1, 2 mg, N 6) was 0.010 h⁻¹. The “Thalf, GeoMean” value (Day 1, 2 mg, N 6) was 47.7 h, the “Thalf, Maximum” value (Day 1, 2 mg, N 6) was 68.1 h and the “Thalf, Mean” value (Day 1, 2 mg, N 6) was 49.0 h. The “Thalf, Median” value (Day 1, 2 mg, N 6) was 44.0 h, the “Thalf, Minimum” value (Day 1, 2 mg, N 6) was 37.8 h and the “Tmax, Minimum” value (Day 1, 2 mg, N 6) was 3.00 h. For the same molecule, the “terminal rate constant” value (Day 1, dose 4 mg oral, GeoMean, N 6) was 0.017, the Cmax [1] was 62.0 ng/mL and the Tmax [1] was 10.00 h. The “apparent terminal half life (t½)” value [1] was 56.0 h, the “terminal rate constant” value [1] was 0.022 and the AUC24hr [1] was 1116. For the same molecule, the “AUC to last time point” value [1] was 3574, the AUC(0-inf) [1] was 4624 and the “terminal rate constant” value (Day 1, dose 4 mg oral, Mean, N 6) was 0.017. The “terminal rate constant” value (Day 1, dose 4 mg oral, Median, N 6) was 0.017, the Cmax [2] was 14.0 ng/mL and the Tmax [2] was 3.00 h. The “apparent terminal half life (t½)” value [2] was 31.6 h, the “terminal rate constant” value [2] was 0.012 and the AUC24hr [2] was 258. The “AUC to last time point” value [2] was 691, the AUC(0-inf) [2] was 736 and the “CL/F, GeoMean” value (Day 21, 1 mg, N = 5) was 2.32 L/h. For the same molecule, the “CL/F, Maximum” value (Day 21, 1 mg, N = 5) was 4.03 L/h, the “CL/F, Mean” value (Day 21, 1 mg, N = 5) was 2.49 L/h and the “CL/F, Median” value (Day 21, 1 mg, N = 5) was 1.90 L/h. The “CL/F, Minimum” value (Day 21, 1 mg, N = 5) was 1.57 L/h, the “Cmax, Maximum” value (Day 21, 1 mg, N = 5) was 34.0 ng/mL and the “Cmax, Minimum” value (Day 21, 1 mg, N = 5) was 14.0 ng/mL. For the same molecule, the “Kel, GeoMean” value (Day 21, 1 mg, N = 5) was 0.013 h⁻¹, the “Kel, Maximum” value (Day 21, 1 mg, N = 5) was 0.017 h⁻¹ and the “Kel, Mean” value (Day 21, 1 mg, N = 5) was 0.014 h⁻¹. For the same molecule, the “Kel, Median” value (Day 21, 1 mg, N = 5) was 0.014 h⁻¹, the “Kel, Minimum” value (Day 21, 1 mg, N = 5) was 0.011 h⁻¹ and the “Thalf, GeoMean” value (Day 21, 1 mg, N = 5) was 51.7 h. For the same molecule, the “Thalf, Maximum” value (Day 21, 1 mg, N = 5) was 65.8 h, the “Thalf, Mean” value (Day 21, 1 mg, N = 5) was 52.6 h and the “Thalf, Median” value (Day 21, 1 mg, N = 5) was 49.3 h. For the same molecule, the “Thalf, Minimum” value (Day 21, 1 mg, N = 5) was 40.6 h, the “Tmax, Maximum” value (Day 21, 1 mg, N = 5) was 8.42 h and the “Css (AUCtau/tau)” value [3] was 37.4 ng/mL. For the same molecule, the “terminal rate constant” value [3] was 0.016, the Cmax [4] was 65.0 ng/mL and the “Css (AUCtau/tau)” value [4] was 49.1 ng/mL. For the same molecule, the Tmax [4] was 6.05 h, the “apparent terminal half life (t½)” value [4] was 50.8 h and the “terminal rate constant” value [4] was 0.021. The AUC24hr [4] was 1177, the “Css (AUCtau/tau)” value [5] was 38.0 ng/mL and the “terminal rate constant” value [5] was 0.016. The “Css (AUCtau/tau)” value [6] was 37.9 ng/mL, the “terminal rate constant” value [6] was 0.015 and the Cmax [7] was 35.0 ng/mL. The “Css (AUCtau/tau)” value [7] was 29.8 ng/mL, the Tmax [7] was 2.00 h and the “apparent terminal half life (t½)” value [7] was 33.0 h. For the same molecule, the “terminal rate constant” value [7] was 0.014, the AUC24hr [7] was 716 and the “Css (AUCtau/tau)” value [8] was 72.7 ng/mL. The “terminal rate constant” value [8] was 0.016, the Cmax [9] was 178.0 ng/mL and the “Css (AUCtau/tau)” value [9] was 126.4 ng/mL. For the same molecule, the Tmax [9] was 10.00 h, the “apparent terminal half life (t½)” value [9] was 54.3 h and the “terminal rate constant” value [9] was 0.020. For the same molecule, the AUC24hr [9] was 3034, the “Css (AUCtau/tau)” value [10] was 85.1 ng/mL and the “terminal rate constant” value [10] was 0.016. The “Css (AUCtau/tau)” value [11] was 102.9 ng/mL, the “terminal rate constant” value [11] was 0.015 and the Cmax [12] was 42.0 ng/mL. For the same molecule, the “Css (AUCtau/tau)” value [12] was 25.7 ng/mL, the Tmax [12] was 2.00 h and the “apparent terminal half life (t½)” value [12] was 34.0 h. The “terminal rate constant” value [12] was 0.013 and the AUC24hr [12] was 616.
